{"source": "patent EP0257993B1", "about": "“Nucleic acid fragment encoding herbicide resistant plant acetolactate synthase” (priority 1986, dated 1988)", "key": {"ALS [1]": {"test_system": "ALS", "experiment": "ALS assay of leaf extracts, wild type tobacco", "type": "biochemical, Nicotiana tabacum CV.NK326 or K14", "settings": "DPX-F6025 at 10ppb, activity without herbicide = 100 percent", "method": "(§1) Approximately 1-2 weeks late shoots developing on kanamycin-selected explants were excised with a sterile scalpel and planted in A medium containing 100 mg/l kanamycin. Root formation on selective and non-selective media was recorded within 3 weeks. Shoots which rooted in kanamycin were transferred to soil and grown in a growth chamber as described above. After 3 to 5 weeks, but before flowering had occurred, leaf tissue was excised and used for ALS assays as described in Example VI. […] Individual flowers were bagged to permit self-fertilization without cross-pollination. Mature seeds were harvested and progeny tests were conducted to determine inheritance of the herbicide resistance trait. Seeds were surface sterilized as described above, dried and planted on SG medium (1/4 MS salts, 0.75% sucrose, 0.8% Agar) in the presence or absence of herbicide (DPX-F6025, Classic®). […] A segregration ratio of 3 resistant progeny to 1 sensitive indicated the presence of a single-site insertion of the SURB-Hra gene in the trasnformant which was stably inherited. […] Higher ratios of resistant to sensitive progeny indicated multiple insertions at unlinked positions in the genome. The 15/1 ratio indicates the presence of 2 unlinked SURB-Hra genes and 255/1 ratio indicates 4 unlinked SURB-Hra genes in the transformants K14 #40 and K14 #7, respectively.\nKeep on ice. • 2. […] Read at OD 530."}, "ALS [2]": {"test_system": "ALS", "experiment": "ALS assay of leaf extracts, wild-type tomato", "type": "biochemical, Lycopersicon esculentum var. Herbst Red Cherry", "method": "After approximately 2-4 weeks, shoots developing off of kanamycin-selected cotyledons were excised and planted in OMS media containing 500 mg/L cefotaxime and 100 mg/L kanamycin. Tomato shoots which rooted in kanamycin after about 2-3 weeks were transferred to soil in 8\" pots and covered with plastic bags. The plants were grown under mixed fluorescent and incandescent lights for a 12 hr, 24°C day; 12 hr, 20°C night cycle, with approximately 80% relative humidity, for one week before removing the plastic bags. The plants were grown for another 2-4 weeks before performing ALS assays. […]\nKeep on ice. • 2. […] 16K rpm, 4°C. • 4. […] Incubate on ice for 30 minutes. • 6. […] Decant supernatant. • 7. Resuspend pellet in 1 ml cold column buffer. • 8. […] Let this run through column. • 9. Elute proteins with 2X volume of extract loaded. […] Incubate reaction for 1 hour, 30°C. • 12. […] Spin in microfuge 5 minutes. • 13. […] Read at OD 530."}, "[3]": {"test_system": "progeny of tobacco transformants", "experiment": "Progeny test of seeds on SG medium with herbicide", "type": "in vivo, Nicotiana tabacum CV.NK326 or K14", "method": "as §1"}, "ALS [4]": {"test_system": "ALS", "type": "biochemical, Nicotiana tabacum", "settings": "C3 and S4 lines", "method": "(§2) Callus cultures of sensitive tobacco (Nicotiana tabacum var. Xanthi) were exposed to sulfometuron methyl at 2 ppb according to the method described by Chaleff, U.S. 4,443,971. […] Plants were regenerated from Hra callus cultures. […] ALS activity in extracts of leaves of wild type and homozygous Hra mutant tobacco plants was determined."}, "tobacco callus": {"test_system": "tobacco callus", "experiment": "Growth of tobacco mutant callus (C3, S4, Hra) on herbicide", "type": "cell-based, Nicotiana tabacum var. Xanthi", "method": "as §2"}, "Hra mutant plants": {"test_system": "Hra mutant plants", "experiment": "Foliar application to Hra mutant plants", "type": "in vivo, Nicotiana tabacum"}}}
{"compound": "CCOC(=O)c1ccccc1S(=O)(=O)NC(=O)Nc1nc(Cl)cc(OC)n1", "note": "[DPX-F6025]", "values": [{"measurement": "% Unhibited ALS Activity", "setting": "ALS [1]; K14 wT", "value": 7, "unit": "%"}, {"measurement": "% Unhibited ALS Activity", "setting": "ALS [1]; NK326(wT)", "value": 7, "unit": "%"}, {"measurement": "Percent Uninhibited ALS Activity", "setting": "ALS [2]; 10ppb", "value": 15, "unit": "%"}, {"measurement": "Percent Uninhibited ALS Activity", "setting": "ALS [2]; 100ppb", "value": 5, "unit": "%"}, {"measurement": "Percent Uninhibited ALS Activity", "setting": "ALS [2]; 1000ppb", "value": 4, "unit": "%"}, {"measurement": "Progeny Resistant/Sensitive", "setting": "[3]; K14 #7, 100ppb DPX-F6025", "value": "990/4"}, {"measurement": "Progeny Resistant/Sensitive", "setting": "[3]; K14 #7, 1000bbp DPX-F6025", "value": "109/1"}, {"measurement": "Progeny Resistant/Sensitive", "setting": "[3]; K14 #11, 100ppb DPX-F6025", "value": "208/85"}, {"measurement": "Progeny Resistant/Sensitive", "setting": "[3]; K14 #11, 1000bbp DPX-F6025", "value": "127/76"}, {"measurement": "Progeny Resistant/Sensitive", "setting": "[3]; K14 #27, 100ppb DPX-F6025", "value": "129/45"}, {"measurement": "Progeny Resistant/Sensitive", "setting": "[3]; K14 #27, 1000bbp DPX-F6025", "value": "108/42"}, {"measurement": "Progeny Resistant/Sensitive", "setting": "[3]; K14 #29, 100ppb DPX-F6025", "value": "192/46"}, {"measurement": "Progeny Resistant/Sensitive", "setting": "[3]; K14 #29, 1000bbp DPX-F6025", "value": "163/67"}, {"measurement": "Progeny Resistant/Sensitive", "setting": "[3]; K14 #32c, 100ppb DPX-F6025", "value": "140/65"}, {"measurement": "Progeny Resistant/Sensitive", "setting": "[3]; K14 #32c, 1000bbp DPX-F6025", "value": "63/86"}, {"measurement": "Progeny Resistant/Sensitive", "setting": "[3]; K14 #40, 100ppb DPX-F6025", "value": "218/18"}, {"measurement": "Progeny Resistant/Sensitive", "setting": "[3]; K14 #40, 1000bbp DPX-F6025", "value": "212/26"}, {"measurement": "Progeny Resistant/Sensitive", "setting": "[3]; K14 #41, 100ppb DPX-F6025", "value": "255/35"}, {"measurement": "Progeny Resistant/Sensitive", "setting": "[3]; K14 #41, 1000bbp DPX-F6025", "value": "296/74"}, {"measurement": "Progeny Resistant/Sensitive", "setting": "[3]; K14 #42, 100ppb DPX-F6025", "value": "162/74"}, {"measurement": "Progeny Resistant/Sensitive", "setting": "[3]; K14 #42, 1000bbp DPX-F6025", "value": "77/72"}, {"measurement": "Progeny Resistant/Sensitive", "setting": "[3]; K14 #53, 100ppb DPX-F6025", "value": "130/59"}, {"measurement": "Progeny Resistant/Sensitive", "setting": "[3]; K14 #53, 1000bbp DPX-F6025", "value": "149/139"}, {"measurement": "Progeny Resistant/Sensitive", "setting": "[3]; K14 #54A, 100ppb DPX-F6025", "value": "137/55"}, {"measurement": "Progeny Resistant/Sensitive", "setting": "[3]; K14 #54A, 1000bbp DPX-F6025", "value": "100/72"}, {"measurement": "Progeny Resistant/Sensitive", "setting": "[3]; K24 #31, 100ppb DPX-F6025", "value": "106/35"}, {"measurement": "Progeny Resistant/Sensitive", "setting": "[3]; K24 #31, 1000bbp DPX-F6025", "value": "99/34"}, {"measurement": "Progeny Resistant/Sensitive", "setting": "[3]; NK326 #9c, 100ppb DPX-F6025", "value": "163/49"}, {"measurement": "Progeny Resistant/Sensitive", "setting": "[3]; NK326 #9c, 1000bbp DPX-F6025", "value": "99/63"}, {"measurement": "Progeny Resistant/Sensitive", "setting": "[3]; NK326 #10, 100ppb DPX-F6025", "value": "93/31"}, {"measurement": "Progeny Resistant/Sensitive", "setting": "[3]; NK326 #10, 1000bbp DPX-F6025", "value": "96/24"}, {"measurement": "Progeny Resistant/Sensitive", "setting": "[3]; NK326 #10c, 100ppb DPX-F6025", "value": "333/45"}, {"measurement": "Progeny Resistant/Sensitive", "setting": "[3]; NK326 #10c, 1000bbp DPX-F6025", "value": "290/76"}, {"measurement": "Progeny Resistant/Sensitive", "setting": "[3]; NK326 #9d, 100ppb DPX-F6025", "value": "288/67"}, {"measurement": "Progeny Resistant/Sensitive", "setting": "[3]; NK326 #9d, 1000bbp DPX-F6025", "value": "150/58"}, {"measurement": "Progeny Resistant/Sensitive", "setting": "[3]; X14 #54, 100ppb DPX-F6025", "value": "99/38"}, {"measurement": "Progeny Resistant/Sensitive", "setting": "[3]; X14 #54, 1000bbp DPX-F6025", "value": "92/43"}, {"measurement": "Progeny Resistant/Sensitive", "setting": "[3]; nk326 #1, 100ppb DPX-F6025", "value": "98/37"}, {"measurement": "Progeny Resistant/Sensitive", "setting": "[3]; nk326 #1, 1000bbp DPX-F6025", "value": "90/35"}]}
{"compound": "COC(=O)c1ccccc1S(=O)(=O)NC(=O)Nc1nc(C)cc(C)n1", "note": "[sulfometuron methyl]", "values": [{"measurement": "resistance of ALS enzyme activity compared with ALS from wild type", "setting": "ALS [4]", "value": "one-hundred fold"}, {"measurement": "selective herbicide resistance conferred by the mutation", "setting": "tobacco callus; C3 cell line (SURA-C3, proline-to-glutamine at position 197)", "value": "conferred resistance"}, {"measurement": "tolerated concentrations compared with that required to completely inhibit the growth of wild type callus", "setting": "tobacco callus; Hra cell line", "value": "one thousand times greater"}, {"measurement": "selective concentration which completely inhibits the growth", "setting": "tobacco callus; S4 cell line", "value": 200, "unit": "ppb"}]}
{"compound": "COc1cc(OC)nc(NC(=O)NS(=O)(=O)c2c(Cl)ccc3c2S(=O)(=O)N(C)CC3)n1", "note": "[7-chloro-N-[(4,6-dimethoxypyrimidin-2-yl)aminocarbonyl]-3,4-dihydro-2-methyl-2H-1,2-benzothiazine-8-sulfonamide, S,S-dioxide]", "values": [{"measurement": "cross resistance to foliar application", "setting": "Hra mutant plants", "value": "cross resistant"}]}
{"compound": "Cc1cc(C)n2nc(S(=O)(=O)Nc3c(C)cccc3Cl)nc2n1", "note": "[N-(2-chloro-6-methylphenyl)-5,7-dimethyl[1,2,4]triazolo[1,5-A]pyrimidin-2-sulfonamide]", "values": [{"measurement": "cross resistance to foliar application", "setting": "Hra mutant plants", "value": "cross resistant"}]}
{"compound": "COc1nc(C)nc(NC(=O)NS(=O)(=O)c2ccccc2Cl)n1", "note": "[2-chloro-N-[(4-methoxy-6-methyl-1,3,5-triazin-2-yl)aminocarbonyl]benzenesulfonamide]", "values": [{"measurement": "cross resistance to foliar application", "setting": "Hra mutant plants", "value": "cross resistant"}]}
{"compound": "6-(4-isopropyl-4-methyl-5-oxo-2-imidazolin-2-yl)-m-toluic acid and p-toluic acid, methyl esters", "values": [{"measurement": "cross resistance to foliar application", "setting": "Hra mutant plants", "value": "cross resistant"}]}
{"compound": "Cc1cc(C)n2nc(S(=O)(=O)Nc3c(Cl)cccc3Cl)nc2n1", "note": "[N-(2,6-dichlorphenyl)-5,7-dimethyl[1,2,4]triazolo [1,5-A]pyrimidin-2-sulfonamide]", "values": [{"measurement": "cross resistance to foliar application", "setting": "Hra mutant plants", "value": "cross resistant"}]}
{"compound": "Cc1cc(C)n2nc(S(=O)(=O)Nc3c(C)cccc3[N+](=O)[O-])nc2n1", "note": "[5,7-dimethyl-N-(2-methyl-6-nitrophenyl)[1,2,4]triazolo[1,5-A]pyrimidin-2-sulfonamide]", "values": [{"measurement": "cross resistance to foliar application", "setting": "Hra mutant plants", "value": "cross resistant"}]}
{"compound": "COC(=O)c1ccccc1S(=O)(=O)NC(=O)Nc1nc(C)cc(C)n1", "note": "[2-[[(4,6-dimethylpyrimidin-2-yl)aminocarbonyl]aminosulfonyl]benzoic acid, methyl ester]", "values": [{"measurement": "cross resistance to foliar application", "setting": "Hra mutant plants", "value": "cross resistant"}]}
{"compound": "CC(C)C1(C)N=C(c2nc3ccccc3cc2C(=O)O)NC1=O", "note": "(stereo not drawn) [2-[4,5-dihydro-4-methyl-4-(1-methylethyl)-5-oxo-1H-imidazol-2-yl]-3-quinolinecarboxylic acid]", "values": [{"measurement": "cross resistance to foliar application", "setting": "Hra mutant plants", "value": "cross resistant"}]}
{"compound": "CCC1C=NC(C2=NC(C)(C(C)C)C(=O)N2)=C(C(=O)O)C1", "note": "(stereo not drawn) [5-ethyl-4,5-dihydro-2-[4-methyl-4-(1-methylethyl)-5-oxo-1H-imidazol-2-yl]-3-pyridinecarboxylic acid]", "values": [{"measurement": "cross resistance to foliar application", "setting": "Hra mutant plants", "value": "cross resistant"}]}
{"compound": "COc1cc(OC)nc(NC(=O)NS(=O)(=O)c2cccc3c2S(=O)(=O)C(C)C3)n1", "note": "(stereo not drawn) [N-[(4,6-dimethoxypyrimidin-2-yl)aminocarbonyl]-2,3-dihydro-2-methylbenzo[β]thiophene-7-sulfonamide, 1,1-dioxide]", "values": [{"measurement": "cross resistance to foliar application", "setting": "Hra mutant plants", "value": "cross resistant"}]}
{"compound": "COC(=O)c1c(C)cccc1S(=O)(=O)NC(=O)Nc1nc(C)cc(OC)n1", "note": "[2-[[(4-methoxy-6-methylpyrimidin-2-yl)aminocarbonyl]aminosulfonyl]-6-methylbenzoic acid, methyl ester]", "values": [{"measurement": "cross resistance to foliar application", "setting": "Hra mutant plants", "value": "cross resistant"}]}
{"compound": "CC(C)C1(C)N=C(c2ncccc2C(=O)O)NC1=O.CC(C)N", "note": "(stereo not drawn)", "values": [{"measurement": "cross resistance to foliar application", "setting": "Hra mutant plants", "value": "cross resistant"}]}
{"compound": "COc1nc(C)nc(NC(=O)NS(=O)(=O)c2ccccc2OCCCl)n1", "note": "[2-(2-chloroethoxy)-N-[(4-methoxy-6-methyl-1,3,5-triazin-2-yl)aminocarbonyl]benzenesulfonamide]", "values": [{"measurement": "cross resistance to foliar application", "setting": "Hra mutant plants", "value": "cross resistant"}]}
{"compound": "CCOC(=O)c1ccccc1S(=O)(=O)NC(=O)Nc1nc(Cl)cc(OC)n1", "note": "[2-[[(4-chloro-6-methoxypyrimidin-2-yl)aminocarbonyl]aminosulfonyl]benzoic acid, ethyl ester]", "values": [{"measurement": "cross resistance to foliar application", "setting": "Hra mutant plants", "value": "cross resistant"}]}
